From PubChem BioAssay AID292 (DTP/NCI, 2004) come the findings set out here.

Toxic doses and inconclusive results are not listed.

In this assay the test system is B6C3F1 mice, ip Sarcoma M5076, median survival T/C. The assay can be described thus: NCI In Vivo Anticancer Drug Screen. Data for tumor model Sarcoma M5076 (intraperitoneal) in B6C3F1 mice. The note with it: endpoint: median survival time, higher = longer survival. The essentials: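 Antitumour effect is judged in tumour-bearing mice by comparing survival after compound dosing against vehicle-only animals, reported as T/C.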

[1] abbreviates: dose: 12.5 mg/kg/injection, schedule: Q04DX004 (ip), vehicle: saline.
Setting [2] is: dose: 25.0 mg/kg/injection, schedule: Q04DX004 (ip), vehicle: saline.
Where [3] appears, read: dose: 50.0 mg/kg/injection, schedule: Q04DX004 (ip), vehicle: saline.
The mark [4] stands for this setting: dose: 50.0 mg/kg/injection, schedule: Q04DX004 (ip), vehicle: Klucel (hydroxypropylcellulose) (HPC).
Setting [5] is: dose: 100.0 mg/kg/injection, schedule: Q04DX004 (ip), vehicle: Klucel (hydroxypropylcellulose) (HPC).
[6] abbreviates: dose: 200.0 mg/kg/injection, schedule: Q04DX004 (ip), vehicle: Klucel (hydroxypropylcellulose) (HPC).
The mark [7] stands for this setting: dose: 400.0 mg/kg/injection, schedule: Q04DX004 (ip), vehicle: Klucel (hydroxypropylcellulose) (HPC).
[8] abbreviates: dose: 75.0 mg/kg/injection, schedule: Q04DX004 (ip), vehicle: Klucel (hydroxypropylcellulose) (HPC).
Where [9] appears, read: dose: 150.0 mg/kg/injection, schedule: Q04DX004 (ip), vehicle: Klucel (hydroxypropylcellulose) (HPC).
Where [10] appears, read: dose: 300.0 mg/kg/injection, schedule: Q04DX004 (ip), vehicle: Klucel (hydroxypropylcellulose) (HPC).

As to `OCCN1CCN(CC/C=C2/c3ccccc3Sc3ccc(C(F)(F)F)cc32)CC1`, the T/C is, setting by setting: (dose: 6.25 mg/kg/injection, schedule: Q04DX004 (ip), vehicle: saline) 108 % of control; under setting [1], 100 % of control; under setting [2], 108 % of control; under setting [3], 112 % of control.
Turning to `Cc1nnc2c3nccnc3c(Cl)nn12`, the T/C is 102 % of control (dose: 15.0 mg/kg/injection, schedule: Q04DX004 (ip), vehicle: saline with Tween-80); 98 % of control (dose: 30.0 mg/kg/injection, schedule: Q04DX004 (ip), vehicle: saline with Tween-80); 101 % of control (dose: 60.0 mg/kg/injection, schedule: Q04DX004 (ip), vehicle: saline with Tween-80); 108 % of control (dose: 120.0 mg/kg/injection, schedule: Q04DX004 (ip), vehicle: saline with Tween-80).
As for `N=C(N)c1ccc(Nc2ccc(-c3cc4ccc(C(=N)N)cc4[nH]3)cc2)cc1`, for the setting “dose: 3.75 mg/kg/injection, schedule: Q04DX004 (ip), vehicle: Klucel (hydroxypropylcellulose) (HPC)”, the T/C was 115 % of control.
Turning to `COc1cccc2c1C(=O)C1=C(C2=O)c2c(O)cc(CO)cc2C(O)C1O` (centres undefined), the T/C by setting is: (dose: 6.25 mg/kg/injection, schedule: Q04DX004 (ip), vehicle: saline with Tween-80) 100 % of control; (dose: 12.5 mg/kg/injection, schedule: Q04DX004 (ip), vehicle: saline with Tween-80) 106 % of control; (dose: 25.0 mg/kg/injection, schedule: Q04DX004 (ip), vehicle: saline with Tween-80) 92 % of control; (dose: 50.0 mg/kg/injection, schedule: Q04DX004 (ip), vehicle: saline with Tween-80) 101 % of control.
For `CC(C)(C)NC(C1=CC(C)(C)c2ccccc2C1=O)c1ccccc1` (centres undefined), the T/C is, setting by setting: under setting [4], 103 % of control; under setting [5], 101 % of control; under setting [6], 110 % of control; under setting [7], 104 % of control.
Regarding `Nc1nc(C=O)nc2c1ncn2C1OC(CO)C(O)C1O` (centres undefined), the T/C is, setting by setting: (dose: 12.5 mg/kg/injection, schedule: Q04DX004 (ip), vehicle: water) 104 % of control; (dose: 25.0 mg/kg/injection, schedule: Q04DX004 (ip), vehicle: water) 104 % of control; (dose: 50.0 mg/kg/injection, schedule: Q04DX004 (ip), vehicle: water) 106 % of control; (dose: 100.0 mg/kg/injection, schedule: Q04DX004 (ip), vehicle: water) 109 % of control; (dose: 200.0 mg/kg/injection, schedule: Q04DX004 (ip), vehicle: water) 123 % of control.
`Cn1c2ccccc2c2oc(CO)cc(=O)c21`: the T/C was 92 % of control (dose: 37.5 mg/kg/injection, schedule: Q04DX004 (ip), vehicle: Klucel (hydroxypropylcellulose) (HPC)); 91 % of control under setting [8]; 91 % of control under setting [9]; 87 % of control under setting [10]; 91 % of control (dose: 600.0 mg/kg/injection, schedule: Q04DX004 (ip), vehicle: Klucel (hydroxypropylcellulose) (HPC)).
Turning to `CC(O)(CSc1ccccc1)CSc1ccccc1` (tested in a mixture with another compound), the T/C is 104 % of control (dose: 18.75 mg/kg/injection, schedule: Q04DX004 (ip), vehicle: saline with Tween-80); 98 % of control (dose: 37.5 mg/kg/injection, schedule: Q04DX004 (ip), vehicle: saline with Tween-80); 100 % of control (dose: 75.0 mg/kg/injection, schedule: Q04DX004 (ip), vehicle: saline with Tween-80); 101 % of control (dose: 150.0 mg/kg/injection, schedule: Q04DX004 (ip), vehicle: saline with Tween-80); 100 % of control (dose: 300.0 mg/kg/injection, schedule: Q04DX004 (ip), vehicle: saline with Tween-80).
Regarding `COc1cc(C2=NCCc3cc4c(cc32)OCO4)cc(OC)c1OC`, the T/C is 106 % of control under setting [1]; 106 % of control under setting [2]; 106 % of control under setting [3]; 110 % of control (dose: 100.0 mg/kg/injection, schedule: Q04DX004 (ip), vehicle: saline).
Take `COc1nc(C(Cl)(Cl)Cl)c(Cl)c(OC)c1Cl`: the T/C under setting [4] was 99 % of control; the T/C under setting [5] is 114 % of control; the T/C (dose: 179.0 mg/kg/injection, schedule: Q04DX004 (ip), vehicle: Klucel (hydroxypropylcellulose) (HPC)) was 152 % of control; the T/C (dose: 179.6 mg/kg/injection, schedule: Q04DX004 (ip), vehicle: Klucel (hydroxypropylcellulose) (HPC)) was 121 % of control; the T/C under setting [7] was 168 % of control.
`Cc1ccc(N=NN(C)C)cc1NC(=O)NCC(=O)OC(C)(C)C`: the T/C is 103 % of control (dose: 16.25 mg/kg/injection, schedule: Q04DX004 (ip), vehicle: saline with Tween-80); 98 % of control (dose: 32.5 mg/kg/injection, schedule: Q04DX004 (ip), vehicle: saline with Tween-80); 111 % of control (dose: 65.0 mg/kg/injection, schedule: Q04DX004 (ip), vehicle: saline with Tween-80); 108 % of control (dose: 130.0 mg/kg/injection, schedule: Q04DX004 (ip), vehicle: saline with Tween-80); 118 % of control (dose: 260.0 mg/kg/injection, schedule: Q04DX004 (ip), vehicle: saline with Tween-80).
`C=CCOc1cc2c(cc1C(C)c1ccc(OC)cc1)OCO2` (centres undefined): the T/C was 98 % of control (dose: 25.0 mg/kg/injection, schedule: Q04DX004 (ip), vehicle: Klucel (hydroxypropylcellulose) (HPC)); 116 % of control under setting [4]; 113 % of control under setting [8]; 115 % of control under setting [5]; 118 % of control (dose: 144.0 mg/kg/injection, schedule: Q04DX004 (ip), vehicle: Klucel (hydroxypropylcellulose) (HPC)); 106 % of control under setting [9]. Besides, the T/C reads like this: under setting [6], 123 % of control; (dose: 240.0 mg/kg/injection, schedule: Q04DX004 (ip), vehicle: Klucel (hydroxypropylcellulose) (HPC)) 108 % of control; under setting [10], 124 % of control; under setting [7], 108 % of control.
Take `C[C@@]1(CO)[C@H](O)CC[C@@]2(C)[C@H]1CC[C@H]1C[C@@H]3C[C@@]12CC[C@@]3(O)COC(=O)CN`: the T/C was 116 % of control (dose: 7.2 mg/kg/injection, schedule: Q03HX027 (ip), vehicle: saline + alcohol); 121 % of control (dose: 10.0 mg/kg/injection, schedule: Q03HX027 (ip), vehicle: saline + alcohol); 116 % of control (dose: 12.0 mg/kg/injection, schedule: Q03HX027 (ip), vehicle: saline + alcohol); 109 % of control (dose: 18.8 mg/kg/injection, schedule: Q04DX004 (ip), vehicle: saline + alcohol); 157 % of control (dose: 20.0 mg/kg/injection, schedule: Q03HX027 (ip), vehicle: saline + alcohol); 104 % of control (dose: 37.5 mg/kg/injection, schedule: Q04DX004 (ip), vehicle: saline + alcohol). Besides, the T/C is, setting by setting: (dose: 55.6 mg/kg/injection, schedule: Q03HX027 (ip), vehicle: saline + alcohol) 156 % of control; (dose: 75.0 mg/kg/injection, schedule: Q04DX004 (ip), vehicle: saline + alcohol) 102 % of control; (dose: 120.0 mg/kg/injection, schedule: Q01DX009 (ip), vehicle: saline + alcohol) 110 % of control.
As to `O=C1C=CC(O)N1` (centres undefined), the T/C runs as follows: (dose: 10.0 mg/kg/injection, schedule: Q01DX009 (ip), vehicle: water) 95 % of control; (dose: 20.0 mg/kg/injection, schedule: Q01DX009 (ip), vehicle: water) 101 % of control; (dose: 40.0 mg/kg/injection, schedule: Q01DX009 (ip), vehicle: water) 101 % of control; (dose: 80.0 mg/kg/injection, schedule: Q01DX009 (ip), vehicle: water) 101 % of control; (dose: 160.0 mg/kg/injection, schedule: Q01DX009 (ip), vehicle: water) 94 % of control.
Consider `Cc1ccoc1`, for which the T/C (dose: 16.8 mg/kg/injection, schedule: Q03HX012 (ip), vehicle: saline with Tween-80) is 101 % of control; the T/C (dose: 33.3 mg/kg/injection, schedule: Q03HX012 (ip), vehicle: saline with Tween-80) is 93 % of control; the T/C (dose: 66.6 mg/kg/injection, schedule: Q03HX012 (ip), vehicle: saline with Tween-80) was 96 % of control; the T/C (dose: 133.3 mg/kg/injection, schedule: Q03HX012 (ip), vehicle: saline with Tween-80) is 100 % of control.
